In brackets after ≈: the same amount, converted by molar mass. Read-outs that look alike come from different tables or passages of the source.
Experiments:
S. aureus Sa1 ATCC 13709 = test: microbe, parasite or virus in culture; format: cell-based; settings: Staphylococcus aureus
[1] = test system: S. aureus Sa26 ATCC 25923; test: Antibacterial activity assay (MIC), S. aureus Sa26; format: cell-based; settings: Staphylococcus aureus
S. aureus Sa4 NCTC 6571 = test: Antibacterial activity assay (MIC), S. aureus Sa4; format: cell-based; settings: Staphylococcus aureus
[2] = test system: S. aureus Sa2 clinical strain NCIMB 41953, MRSA; test: microbe, parasite or virus in culture; format: cell-based; settings: Staphylococcus aureus, read-out: MIC Sa2
[3] = test system: H. influenza Hi3 ATCC 31517; test: organism not typed; format: cell-based; settings: read-out: MIC Hi3
[4] = test system: H. influenza Hi10 clinical strain; test: organism not typed; format: cell-based; settings: read-out: MIC Hi10
[5] = test system: H. influenza Hi47 clinical strain, Ampicillin Resistant; test: organism not typed; format: cell-based; settings: read-out: MIC Hi47
[6] = test system: H. influenza Hi106 ATCC 51907; test: organism not typed; format: cell-based; settings: read-out: MIC Hi106
E. coli Ec1 ATCC 25922 = test: Antibacterial activity assay (MIC), E. coli Ec1; format: cell-based; settings: Escherichia coli
[7] = test system: E. coli Ec50 efflux pump KO; test: microbe, parasite or virus in culture; format: cell-based; settings: Escherichia coli, read-out: MIC Ec50 efflux pump KO
[8] = test system: E. coli Ec113 efflux pump KO; test: microbe, parasite or virus in culture; format: cell-based; settings: Escherichia coli, read-out: MIC Ec113 efflux pump KO
[9] = target: DNA Polymerase IIIα (DnaE) from Staphylococcus aureus (Staphylococcus aureus, UniProt Q6GG04); test: biochemical
DNA III Polymerase E = DNA III Polymerase E (Escherichia coli, UniProt P10443); test: In vitro activity against DNA III Polymerase E, E. coli; format: biochemical
Protocol: A radioactive filterplate assay was used to assess inhibitory activity of compounds on DNA Polymerase IIIα. Five μL of a dilution series of compound, starting from 100 μM highest concentration, 1/5 dilution, was added to the wells of a 96 well plate. Recombinant enzyme was diluted to 0.47 μg/mL in a buffer containing 20 mM Tris pH7.5, 8 mM DTT, 10 mM MgOAc, 0.05% CHAPS and 10 μL thereof was added to the compound dilutions. The reaction was started with the addition of 10 μL substrate in the same buffer, containing activated calf thymus DNA (Sigma, D4522), dATP, dGTP, dCTP, dTTP (Invitrogen) and [α-33P]-dTTP (Perkin Elmer, NEG605H001) at a concentration of 62.5 μg/mL, 50 nM and 7.5 μCi/mL respectively. The mixture was incubated at 30° C. for 120 minutes and terminated by addition of phosphoric acid. Samples were transferred to filter plates and incorporated radioactivity was measured by the Topcount. Data were converted to percent inhibition with respect to positive and negative controls. IC50 values were calculated using Graph Prism™ software.

[10] = test system: Methicillin Resistant S. aureus (MRSA); test: Neutropenic mouse thigh infection model; settings: Thigh Sa, Study 1; 100 mg/kg IP BID; sample time 7 h PI
[11] = ATCC25923, read-out: MIC Sa26 + 10% SH
[12] = ATCC25923, read-out: MIC Sa26 + 50% SH
[13] = DNA polymerase III, E. coli, read-out: IC50 semiquantitative scoring, E. coli
[14] = ATCC13709, S. aureus Sa1 ATCC 13709, sensitive strain, Mueller-Hinton Broth, 37° C., read-out: MIC Sa1
[15] = ATCC25923, read-out: MIC Sa26 + 10% SH, S. aureus Sa26 + 10% SH
[16] = ATCC25923, read-out: MIC Sa26 + 50% SH, S. aureus Sa26 + 50% SH
[17] = ATCC25923, S. aureus Sa26 ATCC 25923, sensitive strain, Mueller-Hinton Broth, 37° C., read-out: MIC Sa26
[18] = NCTC6571, S. aureus Sa4 NCTC 6571, sensitive strain, read-out: MIC Sa4
[19] = ATCC25922, E. coli Ec1 ATCC 25922, sensitive strain, read-out: MIC Ec1

Sequence of DNA Polymerase IIIα (DnaE) from Staphylococcus aureus (Q6GG04 1-1022): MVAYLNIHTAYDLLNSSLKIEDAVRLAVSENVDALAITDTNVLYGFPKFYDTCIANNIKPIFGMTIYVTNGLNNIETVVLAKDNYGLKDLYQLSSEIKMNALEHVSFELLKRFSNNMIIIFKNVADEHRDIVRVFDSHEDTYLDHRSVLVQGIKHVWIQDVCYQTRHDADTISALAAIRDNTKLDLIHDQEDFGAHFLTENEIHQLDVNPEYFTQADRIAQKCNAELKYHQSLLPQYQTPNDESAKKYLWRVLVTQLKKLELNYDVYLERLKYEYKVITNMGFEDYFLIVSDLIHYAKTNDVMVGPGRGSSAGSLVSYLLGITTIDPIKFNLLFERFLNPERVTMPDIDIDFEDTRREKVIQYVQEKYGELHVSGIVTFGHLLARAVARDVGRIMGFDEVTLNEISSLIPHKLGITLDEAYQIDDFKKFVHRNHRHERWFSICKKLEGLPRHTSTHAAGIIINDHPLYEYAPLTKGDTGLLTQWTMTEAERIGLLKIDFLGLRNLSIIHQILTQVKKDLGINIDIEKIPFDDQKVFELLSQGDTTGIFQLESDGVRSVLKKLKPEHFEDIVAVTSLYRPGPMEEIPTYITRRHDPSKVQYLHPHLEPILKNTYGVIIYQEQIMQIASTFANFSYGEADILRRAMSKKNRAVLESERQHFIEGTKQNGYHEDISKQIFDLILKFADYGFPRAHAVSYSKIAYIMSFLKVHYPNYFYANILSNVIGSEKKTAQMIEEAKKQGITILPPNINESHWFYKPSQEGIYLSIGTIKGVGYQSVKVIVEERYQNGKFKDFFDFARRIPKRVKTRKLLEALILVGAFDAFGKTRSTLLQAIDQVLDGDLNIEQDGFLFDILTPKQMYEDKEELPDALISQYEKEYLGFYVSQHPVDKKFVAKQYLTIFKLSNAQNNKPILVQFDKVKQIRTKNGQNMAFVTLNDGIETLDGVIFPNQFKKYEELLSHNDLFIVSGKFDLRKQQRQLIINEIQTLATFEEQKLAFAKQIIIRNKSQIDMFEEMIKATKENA
Sequence of DNA III Polymerase E (P10443 whole entry): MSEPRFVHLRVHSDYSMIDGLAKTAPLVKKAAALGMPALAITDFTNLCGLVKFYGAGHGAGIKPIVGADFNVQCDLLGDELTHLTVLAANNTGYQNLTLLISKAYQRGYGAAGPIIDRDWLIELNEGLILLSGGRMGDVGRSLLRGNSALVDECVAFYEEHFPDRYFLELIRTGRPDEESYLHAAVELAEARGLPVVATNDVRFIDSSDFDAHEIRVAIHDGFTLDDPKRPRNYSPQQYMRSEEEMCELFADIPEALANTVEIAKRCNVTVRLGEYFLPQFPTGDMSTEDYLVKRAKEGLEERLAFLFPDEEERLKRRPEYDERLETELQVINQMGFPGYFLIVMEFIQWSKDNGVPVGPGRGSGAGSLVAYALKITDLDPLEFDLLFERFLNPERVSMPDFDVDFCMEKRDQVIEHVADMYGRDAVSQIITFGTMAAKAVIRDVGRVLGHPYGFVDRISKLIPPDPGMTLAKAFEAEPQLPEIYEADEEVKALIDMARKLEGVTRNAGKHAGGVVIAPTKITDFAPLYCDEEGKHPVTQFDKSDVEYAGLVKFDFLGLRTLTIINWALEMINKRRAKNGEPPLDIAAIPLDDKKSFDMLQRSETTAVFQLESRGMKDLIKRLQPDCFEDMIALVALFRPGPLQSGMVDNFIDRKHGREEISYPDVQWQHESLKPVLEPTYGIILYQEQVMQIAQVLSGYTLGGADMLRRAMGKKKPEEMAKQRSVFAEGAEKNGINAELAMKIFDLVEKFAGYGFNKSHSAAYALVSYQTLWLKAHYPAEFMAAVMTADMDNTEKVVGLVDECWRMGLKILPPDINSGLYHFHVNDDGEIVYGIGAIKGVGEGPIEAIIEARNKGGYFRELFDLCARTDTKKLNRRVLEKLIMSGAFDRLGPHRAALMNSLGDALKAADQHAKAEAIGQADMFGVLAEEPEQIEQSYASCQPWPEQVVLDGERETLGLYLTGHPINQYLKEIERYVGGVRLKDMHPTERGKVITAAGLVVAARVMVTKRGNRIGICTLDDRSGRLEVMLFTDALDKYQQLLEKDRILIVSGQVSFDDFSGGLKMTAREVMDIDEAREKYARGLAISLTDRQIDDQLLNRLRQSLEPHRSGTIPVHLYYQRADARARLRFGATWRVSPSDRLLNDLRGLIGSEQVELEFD

Structure (SMILES)	MIC (S. aureus Sa1 ATCC 13709; ATCC13709, read-out: MIC Sa1) [mg/L]	MIC ([1]; ATCC25923, read-out: MIC Sa26) [mg/L]	MIC [1, 11] [mg/L]	MIC [1, 12] [mg/L]	MIC (S. aureus Sa4 NCTC 6571; NCTC6571, read-out: MIC Sa4) [mg/L]	MIC [2] [mg/L]	MIC [3] [mg/L]	MIC [4] [mg/L]	MIC [5] [mg/L]	MIC [6] [mg/L]	MIC (E. coli Ec1 ATCC 25922; ATCC25922, read-out: MIC Ec1) [mg/L]	MIC [7] [mg/L]	MIC [8] [mg/L]	IC50 [9] [µM]	IC50 (DNA III Polymerase E; [13]) [µM]	MIC (S. aureus Sa1 ATCC 13709; [14]) [mg/L]	MIC [1, 15] [mg/L]	MIC [1, 16] [mg/L]	MIC [1, 17] [mg/L]	MIC (S. aureus Sa4 NCTC 6571; [18]) [mg/L]	other results
COC[C@H]1[C@@H](O)[C@@H]2O[C@@]34/C(C)=C/[C@@H](C)[C@@H]([C@H](O)COC)OC(=O)[C@H](COC)[C@H]3C=C[C@@H]2[C@H]4[C@@H]1O [Branimycin, reference compound]	64 (≈ 133 µM)	64 (≈ 133 µM)	64	64	64 (≈ 133 µM)	64 (≈ 133 µM)	> 64	> 64	> 64	> 64	> 64	8 (≈ 16.6 µM)	1 (≈ 2.07 µM)	0.00207 to 2.07	2.07 to 20.7	–	–	–	–	–	Active [10]: N; Log reduction vs. untreated [10]: −0.3
COC[C@@H]1[C@@H](O)[C@@H]2[C@H]3C=C[C@@H]4[C@@H](COC)C(=O)O[C@H]([C@@H](COC)OC)[C@H](C)/C=C(\C)[C@@]24O[C@H]3[C@@H]1OC(=O)c1ccc[nH]1 [Compound 18, 17-O-Methyl-8-O-1H-pyrrole-2′-carbonylbranimycin]	1 (≈ 1.7 µM)	1 (≈ 1.7 µM)	1	2	1 (≈ 1.7 µM)	1 (≈ 1.7 µM)	> 64	> 64	> 64	> 64	> 64	> 64	2 (≈ 3.39 µM)	0.0017 to 1.7	1.7 to 17	–	–	–	–	–	–
COCC(=O)[C@H]1OC(=O)[C@H](COC)[C@H]2C=C[C@H]3[C@H]4O[C@]2(/C(C)=C/[C@H]1C)[C@@H]3[C@H](O)[C@@H](COC)[C@H]4OC(=O)c1ccc[nH]1 [Compound 20, 18-Deoxy-18-oxo-8-O-1H-pyrrole-2′-carbonylbranimycin]	8 (≈ 13.9 µM)	8 (≈ 13.9 µM)	16	32	4 (≈ 6.97 µM)	2 (≈ 3.49 µM)	> 64	> 64	> 64	> 64	> 64	> 64	16 (≈ 27.9 µM)	0.00174 to 1.74	> 17.4	–	–	–	–	–	–
COC[C@@H]1[C@@H](O)[C@@H]2[C@H]3C=C[C@@H]4[C@@H](COC)C(=O)OC[C@H](C)/C=C(\C)[C@@]24O[C@H]3[C@@H]1OC(=O)c1ccc[nH]1 [Compound 22, 17,18-Dinor-8-O-1H-pyrrole-2′-carbonybranimycin]	–	–	–	–	–	4 (≈ 7.97 µM)	> 64	> 64	> 64	> 64	–	> 64	8 (≈ 15.9 µM)	0.00199 to 1.99	–	4 (≈ 7.97 µM)	4	8	4 (≈ 7.97 µM)	2 (≈ 3.99 µM)	MIC (E. coli Ec1 ATCC 25922; [19]): > 64 mg/L; IC50 (DNA III Polymerase E): > 19.9 µM
COC[C@@H]1[C@@H](O)[C@@H]2[C@H]3C=C[C@@H]4[C@@H](COC)C(=O)O[C@H](C(C)(O)COC)[C@H](C)/C=C(\C)[C@@]24O[C@H]3[C@@H]1OC(=O)c1ccc[nH]1 (some centres unmarked) [Compound 24, 17-Methyl-8-O-1H-pyrrole-2′-carbonylbranimycin]	–	–	–	–	–	2 (≈ 3.39 µM)	> 64	> 64	> 64	> 64	–	1 (≈ 1.7 µM)	2 (≈ 3.39 µM)	0.0017 to 1.7	–	4 (≈ 6.78 µM)	4	4	4 (≈ 6.78 µM)	2 (≈ 3.39 µM)	MIC (E. coli Ec1 ATCC 25922; [19]): > 64 mg/L; IC50 (DNA III Polymerase E): > 17 µM

From US20160297830A1, “NOVEL COMPOUNDS USEFUL FOR THE TREATMENT OF BACTERIAL INFECTIOUS DISEASES” (GALAPAGOS NV, priority 2013, published 2016)
